Holding throughout (settings): Table VIa; host plants sprayed; solution of 400 ppm and dilutions
The test system of assay [1] is Botrytis cinerea. In words: In vivo fungicidal activity, Pepper Botrytis (PB). Also: ranges in brackets are in %.
Assay [2] relates to Erysiphe graminis f. sp. tritici. Nature of the assay: In vivo fungicidal activity, Wheat Powdery Mildew (WPM).
The test system of assay [3] is Plasmopara viticola. In words: In vivo fungicidal activity, Grape Downy Mildew (GDM). Also: ranges in brackets are in %.
Assay [4] deals with Cercospora beticola. In words: In vivo fungicidal activity, Sugar Beet Cercospora (SBC). Also: ranges in brackets are in %.
For assay [5], the system named is Septoria nodorum. In words: In vivo fungicidal activity, Wheat Blotch (WSN). On the procedure:
Test compounds are dissolved in acetone and diluted with deionized water containing about 0.05% TWEEN 20®, a polyoxyethylene sorbitan monolaurate surfactant manufactured by Atlas Chemical Industries, to give a concentration of 400 ppm. Subsequent dilutions are made with an 0.05% aqueous solution of TWEEN 20®.
Host plants are sprayed with test solution, dried and inoculated with fungi. When disease symptom development is optimal, the plants are rated for disease control according to the rating scale shown below. Each test contains inoculated treated plants, inoculated untreated plants and a reference standard. When more than one test is run, the data are averaged.

Assay [6] relates to Pyricularia oryzae. Format: in vivo.
The test system of assay [7] is Alternaria solani. Nature of the assay: In vivo fungicidal activity, Tomato Early Blight (TEB). Also: ranges in brackets are in %.
For assay [8], the system named is Venturis inaequalis. In words: In vivo fungicidal activity, Apple Scab (AS).

On to `CN(CC1COC2(CCC(C(C)(C)C)CC2)C1)C1CCCCC1` (stereo not shown) [Compound 187], for which the “disease control rating PB” value in assay [1] is 7 (90-95). Moreover, the “disease control rating WPM” value in assay [2] is 9 (100). The “disease control rating GDM” value in assay [3] is given as 5 (60-74). For the same molecule, the “disease control rating SBC” value in assay [4] is given as 5 (60-74). Also, the “disease control rating WSN” value in assay [5] was 7 (90-95). Besides, the “disease control rating RB” value in assay [6] is listed as 0 (0). Moreover, in assay [7], the “disease control rating TEB” value is listed as 6 (75-89). Besides, the “disease control rating AS (Apple Scab)” value in assay [8] is recorded as 4 (45-59).

Regarding `CCN(CC1COC2(CCC(C(C)(C)C)CC2)C1)C1CCCCC1` (stereo not shown) [Compound 188], the “disease control rating PB” value in assay [1] is 5 (60-74). The “disease control rating WPM” value in assay [2] is reported as 8 (96-99). In assay [3], the “disease control rating GDM” value was 0 (0). For the same molecule, the “disease control rating SBC” value in assay [4] is on record as 4 (45-59). Further, the “disease control rating WSN” value in assay [5] is reported as 6 (75-89). In assay [6], the “disease control rating RB” value is 0 (0). For the same molecule, the “disease control rating TEB” value in assay [7] is 0 (0). In addition, the “disease control rating AS (Apple Scab)” value in assay [8] is on record as 5 (60-74).

As for `CC1CCCC(NCCC2COC3(CCC(C(C)(C)C)CC3)C2)C1` (stereo not shown) [Compound 192], the “disease control rating PB” value in assay [1] is recorded as 8 (96-99). In addition, in assay [2], the “disease control rating WPM” value was 7 (90-95). For the same molecule, the “disease control rating GDM” value in assay [3] was 6 (75-89). Further, in assay [4], the “disease control rating SBC” value is listed as 7 (90-95). Further, in assay [5], the “disease control rating WSN” value is recorded as 7 (90-95). In assay [6], the “disease control rating RB” value is 0 (0). The “disease control rating TEB” value in assay [7] is 4 (45-59). For the same molecule, the “disease control rating AS (Apple Scab)” value in assay [8] is reported as 7 (90-95).

Take `CCCC(CCC)NCCC1COC2(CCC(C(C)(C)C)CC2)C1` (stereo not shown) [Compound 193]: in assay [1], the “disease control rating PB” value is listed as 7 (90-95). The “disease control rating WPM” value in assay [2] is reported as 8 (96-99). Besides, in assay [3], the “disease control rating GDM” value is on record as 8 (96-99). Moreover, the “disease control rating SBC” value in assay [4] is listed as 6 (75-89). Moreover, the “disease control rating WSN” value in assay [5] is 3 (30-44). The “disease control rating RB” value in assay [6] is recorded as 0 (0). Moreover, the “disease control rating TEB” value in assay [7] is listed as 2 (15-29). The “disease control rating AS (Apple Scab)” value in assay [8] was 6 (75-89).

`CCCCCC(C)NCCC1COC2(CCC(C(C)(C)C)CC2)C1` (stereo not shown) [Compound 194]: the “disease control rating PB” value in assay [1] is given as 4 (45-59). Further, the “disease control rating WPM” value in assay [2] is 7 (90-95). For the same molecule, the “disease control rating GDM” value in assay [3] is 7 (90-95). Further, the “disease control rating SBC” value in assay [4] is listed as 8 (96-99). In addition, the “disease control rating WSN” value in assay [5] is 7 (90-95). In addition, in assay [6], the “disease control rating RB” value is recorded as 0 (0). Moreover, the “disease control rating TEB” value in assay [7] is on record as 3 (30-44). In addition, the “disease control rating AS (Apple Scab)” value in assay [8] is reported as 6 (75-89).

As to `CC(C)(C)C1CCC2(CC1)CC(CCNC1CCCCCC1)CO2` (stereo not shown) [Compound 195], in assay [1], the “disease control rating PB” value was 5 (60-74). Besides, in assay [2], the “disease control rating WPM” value is recorded as 7 (90-95). The “disease control rating GDM” value in assay [3] is reported as 5 (60-74). In addition, the “disease control rating SBC” value in assay [4] is listed as 7 (90-95). For the same molecule, the “disease control rating WSN” value in assay [5] is given as 7 (90-95). The “disease control rating RB” value in assay [6] is 7 (90-95). Also, the “disease control rating TEB” value in assay [7] is listed as 0 (0). The “disease control rating AS (Apple Scab)” value in assay [8] is reported as 6 (75-89).

For `CCCCN(CCCC)CCC1COC2(CCC(C(C)(C)C)CC2)C1` (stereo not shown) [Compound 196], in assay [1], the “disease control rating PB” value is listed as 5 (60-74). In addition, the “disease control rating WPM” value in assay [2] is given as 9 (100). In addition, the “disease control rating GDM” value in assay [3] is 5 (60-74). Further, in assay [4], the “disease control rating SBC” value is on record as 8 (96-99). The “disease control rating WSN” value in assay [5] is on record as 7 (90-95). Further, the “disease control rating RB” value in assay [6] is 6 (75-89). For the same molecule, in assay [7], the “disease control rating TEB” value was 0 (0). The “disease control rating AS (Apple Scab)” value in assay [8] is given as 5 (60-74).

Take `CCCCC(CC)NCCC1COC2(CCC(C(C)(C)C)CC2)C1` (stereo not shown) [Compound 197]: the “disease control rating PB” value in assay [1] is 8 (96-99). Also, the “disease control rating WPM” value in assay [2] is reported as 8 (96-99). In assay [3], the “disease control rating GDM” value is given as 7 (90-95). The “disease control rating SBC” value in assay [4] is recorded as 7 (90-95). Also, the “disease control rating WSN” value in assay [5] is 7 (90-95). For the same molecule, the “disease control rating RB” value in assay [6] is 0 (0). Besides, the “disease control rating TEB” value in assay [7] is 0 (0). In addition, in assay [8], the “disease control rating AS (Apple Scab)” value was 5 (60-74).

Consider `CC(C)(C)C1CCC2(CC1)CC(CCNC1CCC3CCCCC3C1)CO2` (stereo not shown) [Compound 198], for which the “disease control rating PB” value in assay [1] is on record as 7 (90-95). Further, the “disease control rating WPM” value in assay [2] is on record as 8 (96-99). Further, in assay [3], the “disease control rating GDM” value was 6 (75-89). Moreover, the “disease control rating SBC” value in assay [4] is listed as 8 (96-99). In addition, the “disease control rating WSN” value in assay [5] was 8 (96-99). The “disease control rating RB” value in assay [6] is 0 (0). The “disease control rating TEB” value in assay [7] is recorded as 6 (75-89). Moreover, the “disease control rating AS (Apple Scab)” value in assay [8] was 6 (75-89).

`CN(CCC1COC2(CCC(C(C)(C)C)CC2)C1)C1CCCCC1` (stereo not shown) [Compound 199]: the “disease control rating PB” value in assay [1] was 7 (90-95). Moreover, the “disease control rating WPM” value in assay [2] is 8 (96-99). Also, the “disease control rating GDM” value in assay [3] is listed as 5 (60-74). In addition, the “disease control rating SBC” value in assay [4] is listed as 3 (30-44). For the same molecule, the “disease control rating WSN” value in assay [5] is on record as 7 (90-95). The “disease control rating RB” value in assay [6] is reported as 0 (0). Moreover, the “disease control rating TEB” value in assay [7] is recorded as 4 (45-59). For the same molecule, the “disease control rating AS (Apple Scab)” value in assay [8] is listed as 6 (75-89).

As to `CCN(CCC1COC2(CCC(C(C)(C)C)CC2)C1)C1CCCCC1` (stereo not shown) [Compound 200], the “disease control rating PB” value in assay [1] is 8 (96-99). Also, in assay [2], the “disease control rating WPM” value was 8 (96-99). In assay [3], the “disease control rating GDM” value was 5 (60-74). Besides, in assay [4], the “disease control rating SBC” value is 8 (96-99). Moreover, the “disease control rating WSN” value in assay [5] is on record as 8 (96-99). Besides, in assay [6], the “disease control rating RB” value is recorded as 0 (0). Further, the “disease control rating TEB” value in assay [7] was 0 (0). In assay [8], the “disease control rating AS (Apple Scab)” value is 7 (90-95).

Turning to `CCCCCC(C)N(C)CCC1COC2(CCC(C(C)(C)C)CC2)C1` (stereo not shown) [Compound 201], the “disease control rating PB” value in assay [1] is given as 3 (30-44). Further, the “disease control rating WPM” value in assay [2] is on record as 8 (96-99). In assay [3], the “disease control rating GDM” value is reported as 7 (90-95). The “disease control rating SBC” value in assay [4] is 6 (75-89). Moreover, the “disease control rating WSN” value in assay [5] is given as 5 (60-74). The “disease control rating RB” value in assay [6] is 0 (0). The “disease control rating TEB” value in assay [7] was 0 (0). The “disease control rating AS (Apple Scab)” value in assay [8] is given as 6 (75-89).

Turning to `CCCCCC(C)N(CC)CCC1COC2(CCC(C(C)(C)C)CC2)C1` (stereo not shown) [Compound 202], the “disease control rating PB” value in assay [1] is recorded as 7 (90-95). Besides, in assay [2], the “disease control rating WPM” value is reported as 8 (96-99). Also, in assay [3], the “disease control rating GDM” value is 5 (60-74). Also, the “disease control rating SBC” value in assay [4] is recorded as 7 (90-95). Besides, in assay [5], the “disease control rating WSN” value is recorded as 5 (60-74). Further, in assay [6], the “disease control rating RB” value is given as 0 (0). The “disease control rating TEB” value in assay [7] is on record as 0 (0). In addition, the “disease control rating AS (Apple Scab)” value in assay [8] is reported as 6 (75-89).

For `CC(C)(C)C1CCC2(CC1)CC(CCN1CCCCC1)CO2` (stereo not shown) [Compound 203], in assay [1], the “disease control rating PB” value is listed as 8 (96-99). Besides, the “disease control rating WPM” value in assay [2] is reported as 8 (96-99). For the same molecule, the “disease control rating GDM” value in assay [3] is 0 (0). Besides, in assay [4], the “disease control rating SBC” value is 8 (96-99). Besides, in assay [5], the “disease control rating WSN” value is reported as 6 (75-89). For the same molecule, the “disease control rating RB” value in assay [6] is 0 (0). For the same molecule, in assay [7], the “disease control rating TEB” value is listed as 6 (75-89). Also, the “disease control rating AS (Apple Scab)” value in assay [8] is 0 (0).
